System: inducible engineered cell
Assay: Mesenchymal to Epithelial transition (MET) assay (D11), plasticity ratio from E-Cadherin and Vimentin markers
Type: cell-based
Details: 10 mM RA; FIG. 12A; E-Cadherin (AF 647), Vimentin (AF 488); PR with no RA 1.3
Source text: FIGS. 12A and 12B depict an assay, Mesenchymal to Epithelial transition (MET) (D11), at various concentrations of Retinoic acid (RA) assessing markers E-Cadherin and Vimentin; and RA effect on expression of E-Cadherin and Vimentin in SW480 clone 1C3, respectively, according to embodiments as disclosed herein;
FIGS. 12A and 12B are representations depicting assay for Mesenchymal to Epithelial transition (MET) (D11), at various concentrations of Retinoic acid (RA) measuring markers E-Cadherin and Vimentin; and RA effect on expression of E-Cadherin and Vimentin in SW480 clone 1C3, respectively. […] FIGS. 15A, 15B and 15C are representations depicting assay for Exosome vesicles secretion and uptake (D14), showing standard curve of exosome quantification; exosome secretion in colon cancer cells; and exosome uptake in cell lines.
Mesenchymal to Epithelial transition (MET) is the ability of the tumor cells to change from the moving cellular form, back to the growing cellular form. This is measured by detecting the change in the epithelial and mesenchymal cell markers, once cells are treated with agents promoting MET. […] Flow cytometry is used, along with imaging techniques like fluorescence markers using multiple proteins as markers, including but not limited to E cadherin, Vimentin, N Cadherin, Epcam, CD 133, CD 44, to measure MET. […]

CC1=C(/C=C/C(C)=C/C=C/C(C)=C/C(=O)O)C(C)(C)CCC1 [RA, Retinoic acid]
PR (plasticity ratio, mesenchymal marker Vimentin to epithelial marker E-Cadherin): 0.56
